Among the data in EP0689844A1, “Complexes of vinpocetine formed with cyclodextrins, process for their preparation and pharmaceutical compositions containing them” (TECNIMEDE-SOCIEDADE TECNICO-MEDICINAL, S.A., priority 1994, dated 1996) are solubility and absolute bioavailability values, retold here.

The nature of series [1]: solubility of vinpocetine in cyclodextrin solutions of different concentrations (phase solubility, HPLC). It is filed as physicochemical. Conditions: aqueous cyclodextrin solution, 37 °C, aqueous with cosolvent or surfactant or cyclodextrin, thermodynamic from solid. On the procedure: 10 mg of vinpocetine, cyclodextrin in different amounts and 10 ml of distilled water were charged into 20 ml test tubes. After closing, the tubes were agitated for 24 hours at 37°C, thereafter the samples were filtrated and the filtrates were analysed by HPLC (High Performance Liquid Chromatography) in 0.1N HCl solution.

For series [2] the following is noted: p.o.; cited from earlier work.
The conditions of series [3]: cited from earlier work.

In brackets after ≈: the same amount, converted by molar mass. Read-outs that look alike come from different tables or passages of the source.

As to `CCOC(=O)C1=C[C@]2(CC)CCCN3CCc4c(n1c1ccccc41)[C@@H]32` [vinpocetine, eburnamenine-14-carboxylic acid ethyl ester], the solubility at 24 h in series [1] (HP-β-cyd 25.0 mM in distilled water) was 5.5 µg/mL (≈ 15.7 µM); in series [1] (HP-β-cyd 50.0 mM in distilled water), 12.8 µg/mL (≈ 36.5 µM); in series [1] (HP-β-cyd 100.0 mM in distilled water), 23.2 µg/mL (≈ 66.2 µM); in series [1] (γ-cyd 12.5 mM in distilled water) it was 6.1 µg/mL (≈ 17.4 µM); in series [1] (γ-cyd 25.0 mM in distilled water), 12 µg/mL (≈ 34.2 µM); in series [1] (γ-cyd 50.0 mM in distilled water), 24.4 µg/mL (≈ 69.6 µM). The absolute bioavailability in series [2] is listed as 6.7%. The solubility result in series [3] (in ethanol and 0.1N HCl) is “dissolves well”; in series [3] (in water, ethyl ether and hexane), “poorly soluble”.

As a reminder, the solubility is how much of the substance goes into solution per volume.
